What was measured:
[1] = target: T1, full length Keap1 protein / full length NRF2 protein (Homo sapiens, UniProt Q14145); assay: NRF2-Keap1 TR-FRET Low Protein Assay; type: binding; conditions: 1.25 nM Keap1 FlagHis and 2.5 nM biotin-NRF2 added
T1 construct: full length NRF2 protein and full length Keap1 protein (Keap1 exists a dimer) are used; His
How it was run: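 Flag-tagged full-length Keap1 was preincubated with compound (3-fold series) for 2.25 h at 37 °C in Tris pH 8.0/MgCl2/NaCl/BSA/DTT/CHAPS. Biotin-Avi-NRF2 (added at 2.5 nM) was then bound for 1.25 h at 4 °C. Eu-streptavidin/anti-Flag-APC TR-FRET (665/615 nm) was read after 1 h at RT, and pIC50 came from a four-parameter fit.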

[2] = target: T1, full length Keap1 protein / full length NRF2 protein; assay: NRF2-Keap1 TR-FRET Assay; type: binding; conditions: 25 nM Keap1-FlagHis and 50 nM biotin-NRF2 added
How it was run: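 Displacement of biotinylated full-length NRF2 from full-length Keap1 read by Eu/APC TR-FRET (665/615 nm) after 1 h detection at RT. Compound, 3-fold series, first incubated with Keap1 at 37 °C for 2.25 h, NRF2 then added at 4 °C for 1.25 h; pIC50 by four-parameter equation.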

T1 sequence (Q14145 whole entry): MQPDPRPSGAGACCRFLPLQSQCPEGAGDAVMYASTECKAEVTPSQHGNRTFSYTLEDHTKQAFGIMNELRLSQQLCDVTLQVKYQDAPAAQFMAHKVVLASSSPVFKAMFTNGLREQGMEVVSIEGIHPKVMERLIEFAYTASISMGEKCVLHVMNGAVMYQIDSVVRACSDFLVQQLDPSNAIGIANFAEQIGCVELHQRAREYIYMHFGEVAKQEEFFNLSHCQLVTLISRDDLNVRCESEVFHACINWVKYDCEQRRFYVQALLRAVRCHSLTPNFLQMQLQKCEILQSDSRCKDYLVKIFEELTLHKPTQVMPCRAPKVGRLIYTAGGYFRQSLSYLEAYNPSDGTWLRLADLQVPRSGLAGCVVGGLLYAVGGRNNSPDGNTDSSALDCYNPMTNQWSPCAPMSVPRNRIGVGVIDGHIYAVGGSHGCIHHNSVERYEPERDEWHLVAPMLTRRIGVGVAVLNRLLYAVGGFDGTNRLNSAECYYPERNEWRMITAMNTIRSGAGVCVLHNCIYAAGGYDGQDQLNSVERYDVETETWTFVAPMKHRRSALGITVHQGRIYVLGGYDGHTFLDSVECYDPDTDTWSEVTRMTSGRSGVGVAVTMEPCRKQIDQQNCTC

| Structure (SMILES) | IC50 [1] [nM] | IC50 [2] [nM] |
| --- | --- | --- |
| CC[C@@H]1CN(Cc2cccc(-c3cccc(-n4ncc(C(=O)O)c4C4CC4c4cn(C)nn4)c3)c2)Cc2ccccc2O1 (stereo partly drawn) [Example 129, 1-(3′-(((R)-2-ethyl-2,3-dihydrobenzo[f][1,4]oxazepin-4(5H)-yl)methyl)-[1,1′-biphenyl]-3-yl)-5-(2-(1-methyl-1H-1,2,3-triazol-4-yl)cyclopropyl)-1H-pyrazole-4-carboxylic Acid] | < 10 | 10 to 100 |
| Cn1cc([C@@H]2C[C@H]2c2c(C(=O)O)cnn2-c2cccc(-c3cccc(OCC4CCCC(C(F)(F)F)C4)c3)c2)nn1 (mixture of isomers) [Example 147, 5-((1,2-trans)-2-(1-Methyl-1H-1,2,3-triazol-4-yl)cyclopropyl)-1-(3′-((3-(trifluoromethyl)cyclohexyl)methoxy)-[1,1′-biphenyl]-3-yl)-1H-pyrazole-4-carboxylic acid] | 10 to 100 | 100 to 1000 |
| Cn1cc([C@H]2C[C@@H]2c2c(C(=O)O)cnn2-c2cccc(-c3cccc(OCc4cccc(-c5ccccc5)c4)c3)c2)nn1 (racemic) [Example 238, 1-(3′-([1,1′-Biphenyl]-3-ylmethoxy)-[1,1′-biphenyl]-3-yl)-5-((1,2- trans)-2-(1-methyl-1H-1,2,3-triazol-4-yl)cyclopropyl)-1H-pyrazole-4-carboxylic acid] | 100 to 1000 | 1000 to 10000 |
| Cn1cc(C2CC2c2c(C(=O)O)cnn2-c2cccc(-c3cccc(OCCC(C)(C)C)c3)c2)nn1 (stereo not drawn) [Example 225, 1-(3′-(3,3-Dimethylbutoxy)-[1,1′-biphenyl]-3-yl)-5-(2-(1-methyl-1H-1,2,3-triazol-4-yl)cyclopropyl)-1H-pyrazole-4-carboxylic acid] | 10 to 100 | 100 to 1000 |
| Cn1cc(C2CC2c2c(C(=O)O)cnn2-c2cccc(-c3cccc(OCc4ccc(F)cc4)c3)c2)nn1 (stereo not drawn) [Example 223, 1-(3′-((4-Fluorobenzyl)oxy)-[1,1′-biphenyl]-3-yl)-5-(2-(1-methyl-1H-1,2,3-triazol-4-yl)cyclopropyl)-1H-pyrazole-4-carboxylic acid] | 100 to 1000 | 1000 to 10000 |
| COC(CC1CCCCC1)c1cccc(-c2cccc(-n3ncc(C(=O)O)c3C3CC3c3cn(C)nn3)c2)c1 (stereo not drawn) [Example 216, 1-(3′-(2-Cyclohexyl-1-methoxyethyl)-[1,1′-biphenyl]-3-yl)-5-(2-(1-methyl-1H-1,2,3-triazol-4-yl)cyclopropyl)-1H-pyrazole-4-carboxylic Acid] | 10 to 100 | 100 to 1000 |
| CCC[C@@H]1CCCCN1C(=O)c1cccc(-c2cccc(-n3nc(C)c(C(=O)O)c3C3CC3c3cn(C)nn3)c2)c1 (stereo partly drawn) [Example 202, 3-Methyl-5-(2-(1-methyl-1H-1,2,3-triazol-4-yl)cyclopropyl)-1-(3′-((R)-2-propylpiperidine-1-carbonyl)-[1,1′-biphenyl]-3-yl)-1H-pyrazole-4-carboxylic acid] | < 10 | 10 to 100 |
| CC(Oc1cccc(-c2cccc(-n3ncc(C(=O)O)c3C3CC3c3cn(C)nn3)c2)c1)c1ccccc1 (stereo not drawn) [Example 235, 5-(2-(1-Methyl-1H-1,2,3-triazol-4-yl)cyclopropyl)-1-(3′-(1-phenylethoxy)-[1,1′-biphenyl]-3-yl)-1H-pyrazole-4-carboxylic Acid] | 10 to 100 | 100 to 1000 |
| Cc1nnc(-c2cccc(-c3cccc(-n4ncc(C(=O)O)c4C4CC4)c3)c2)o1 [Example 210, 5S-Cyclopropyl-1-(3′-(5-methyl-1,3,4-oxadiazol-2-yl)-[1,1′-biphenyl]-3-yl)-1H-pyrazole-4-carboxylic acid] | 10000 to 100000 | > 100000 |
| CCC1CCC(COc2cccc(-c3cccc(-n4ncc(C(=O)O)c4[C@@H]4C[C@H]4c4cn(C)nn4)c3)c2)CC1 (mixture of isomers) [Example 150, 1-(3′-((4-Ethylcyclohexyl)methoxy)-[1,1′-biphenyl]-3-yl)-5-((1,2-trans)-2-(1-methyl-1H-1,2,3-triazol-4-yl)cyclopropyl)-1H-pyrazole-4-carboxylic acid] | 10 to 100 | 100 to 1000 |
| CC(CC1CCCCC1)Oc1cccc(-c2cccc(-n3ncc(C(=O)O)c3C3CC3c3cn(C)nn3)c2)c1 (stereo not drawn) [Example 218, 1-(3′-((1-Cyclohexylpropan-2-yl)oxy)-[1,1′-biphenyl]-3-yl)-5-(2-(1-methyl-1H-1,2,3-triazol-4-yl)cyclopropyl)-1H-pyrazole-4-carboxylic Acid] | 10 to 100 | 100 to 1000 |
| CCC[C@@H]1CCCCN1C(=O)c1cccc(-c2cccc(-n3ncc(C(=O)O)c3C3CC3c3cnn(C)c3)c2)c1 (stereo partly drawn) [Example 213, 5-(2-(1-Methyl-1H-pyrazol-4-yl)cyclopropyl)-1-(3′-((R)-2-propylpiperidine-1-carbonyl)-[1,1′-biphenyl]-3-yl)-1H-pyrazole-4-carboxylic Acid] | < 10 | 10 to 100 |
| Cn1cc(C2CC2c2c(C(=O)O)cnn2-c2cccc(-c3cccc(OC4CCOCC4)c3F)c2)nn1 (stereo not drawn) [Example 234, 1-(2′-Fluoro-3′-((tetrahydro-2H-pyran-4-yl)oxy)-[1,1′-biphenyl]-3-yl)-5-(2-(1-methyl-1H-1,2,3-triazol-4-yl)cyclopropyl)-1H-pyrazole-4-carboxylic Acid] | 10 to 100 | 100 to 1000 |
| Cn1cc(C2CC2c2c(C(=O)O)cnn2-c2cccc(-c3cccc(CCC4CCCCC4)c3)c2)nn1 (stereo not drawn) [Example 233, 1-(3′-(2-Cyclohexylethyl)-[1,1′-biphenyl]-3-yl)-5-(2-(1-methyl-1H-1,2,3-triazol-4-yl)cyclopropyl)-1H-pyrazole-4-carboxylic Acid] | 10 to 100 | 100 to 1000 |
| Cn1cc([C@@H]2C[C@H]2c2c(C(=O)O)cnn2-c2cccc(-c3cccc(OCC4CCCCC4)c3F)c2)nn1 (racemic) [Example 152, 1-(3′-(Cyclohexylmethoxy)-2′-fluoro-[1,1′-biphenyl]-3-yl)-5-((1,2-trans)-2-(1-methyl-1H-1,2,3-triazol-4-yl)cyclopropyl)-1H-pyrazole-4-carboxylic Acid] | 10 to 100 | 100 to 1000 |
| Cn1cc(C2CC2c2c(C(=O)O)cnn2-c2cccc(-c3cccc(OCc4ccccc4)c3)c2)nn1 (stereo not drawn) [Example 221] | 100 to 1000 | 100 to 1000 |
| CCC[C@@H]1CCCCN1C(=O)c1cccc(-c2cccc(-n3ncc(C(=O)O)c3[C@H]3C[C@@H]3c3cn(C)nn3)c2)c1 [Example 51g, 5-[(1S,2S)-2-(1-methyl-1H-1,2,3-triazol-4-yl)cyclopropyl]-1-(3-{3-[(2R)-2-propylpiperidine-1-carbonyl]phenyl}phenyl)-1H-pyrazole-4-carboxylic Acid] | 100 to 1000 | 1000 to 10000 |
| CCn1cc([C@H]2C[C@@H]2c2c(C(=O)O)cnn2-c2cccc(-c3cccc(OC(C)C4CCCCC4)c3)c2)nn1 (mixture of isomers) [Example 192, 1-(3′-(1-cyclohexylethoxy)-[1,1′-biphenyl]-3-yl)-5-((1,2-trans)-2-(1-ethyl-1H-1,2,3-triazol-4-yl)cyclopropyl)-1H-pyrazole-4-carboxylic acid] | 10 to 100 | 100 to 1000 |
| Cn1cc([C@@H]2C[C@H]2c2c(C(=O)O)cnn2-c2cccc(-c3cccc(OCCC4CCCCC4)c3)c2)nn1 (racemic) [Example 245, 1-(3′-(2-cyclohexylethoxy)-[1,1′-biphenyl]-3-yl)-5-(trans-2-(1-methyl-1H-1,2,3-triazol-4-yl)cyclopropyl)-1H-pyrazole-4-carboxylic Acid] | 10 to 100 | 100 to 1000 |
| CC(Oc1cccc(-c2cccc(-n3ncc(C(=O)O)c3C3CC3c3cn(C)nn3)c2)c1)C1CC1 (stereo not drawn) [Example 231, 1-(3′-(1-Cyclopropylethoxy)-[1,1′-biphenyl]-3-yl)-5-(2-(1-methyl-1H-1,2,3-triazol-4-yl)cyclopropyl)-1H-pyrazole-4-carboxylic acid] | 10 to 100 | 100 to 1000 |
| COC1CCCCC1COc1cccc(-c2cccc(-n3ncc(C(=O)O)c3[C@H]3C[C@@H]3c3cn(C)nn3)c2)c1 (mixture of isomers) [Example 177, 1-(3′-((2-Methoxycyclohexyl)methoxy)-[1,1′-biphenyl]-3-yl)-5-((1,2-trans)-2-(1-methyl-1H-1,2,3-triazol-4-yl)cyclopropyl)-1H-pyrazole-4-carboxylic acid] | 100 to 1000 | 100 to 1000 |
| CCC[C@@H]1CCCCN1C(=O)c1cccc(-c2cccc(-n3ncc(C(=O)O)c3C3CC3(F)F)c2)c1 (stereo partly drawn) [Example 67, 5-(2,2-Difluorocyclopropyl)-1-(3′-((R)-2-propylpiperidine-1-carbonyl)-[1,1′-biphenyl]-3-yl)-1H-pyrazole-4-carboxylic Acid] | 10 to 100 | 100 to 1000 |
| CC(CC1CCCCC1)Oc1cccc(-c2cccc(-n3ncc(C(=O)O)c3C3CC3)c2)c1 (stereo not drawn) [Example 161, 1-(3′-((1-Cyclohexylpropan-2-yl)oxy)-[1,1′-biphenyl]-3-yl)-5-cyclopropyl-1H-pyrazole-4-carboxylic Acid] | 1000 to 10000 | 10000 to 100000 |
| CC(Oc1cccc(-c2cccc(-n3ncc(C(=O)O)c3[C@H]3C[C@@H]3c3cn(C)nn3)c2)c1)c1ccc(-c2ccccc2)cc1 (mixture of isomers) [Example 240, 1-(3′-(1-([1,1′-Biphenyl]-4-yl)ethoxy)-[1,1′-biphenyl]-3-yl)-5-((1,2- trans)-2-(1-methyl-1H-1,2,3-triazol-4-yl)cyclopropyl)-1H-pyrazole-4-carboxylic acid] | 100 to 1000 | 1000 to 10000 |
